{
  "source": "patent US11174242B2",
  "about": "“Heteroaryl compounds and their use” (Minoryx Therapeutics S.L., priority 2016, dated 2021)",
  "data": [
    {"target": "T1, β-glucocerebrosidase, p.L444P mutation (GM08760A fibroblasts) (Homo sapiens, UniProt P04062, L483P)", "T1 construct": "host or cells: human Gaucher patient fibroblasts GM08760A, homozygous L444P", "T1 sequence (P04062 40-536 L483P)": "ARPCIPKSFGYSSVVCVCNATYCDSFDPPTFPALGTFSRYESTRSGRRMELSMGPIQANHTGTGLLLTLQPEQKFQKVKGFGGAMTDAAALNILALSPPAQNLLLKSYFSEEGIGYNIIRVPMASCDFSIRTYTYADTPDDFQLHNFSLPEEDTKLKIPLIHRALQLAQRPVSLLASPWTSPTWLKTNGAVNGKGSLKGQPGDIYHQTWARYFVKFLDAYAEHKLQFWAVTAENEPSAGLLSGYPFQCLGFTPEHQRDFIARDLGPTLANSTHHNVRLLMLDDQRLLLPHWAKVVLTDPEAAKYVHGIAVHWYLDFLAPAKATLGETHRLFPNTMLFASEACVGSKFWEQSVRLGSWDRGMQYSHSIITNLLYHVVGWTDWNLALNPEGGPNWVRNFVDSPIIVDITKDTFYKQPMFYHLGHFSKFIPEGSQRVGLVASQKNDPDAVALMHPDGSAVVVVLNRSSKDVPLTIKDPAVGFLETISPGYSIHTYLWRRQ", "assay": "Enhancement of β-glucocerebrosidase activity measured in Gaucher disease fibroblasts (L444P)", "type": "cell-based", "settings": "commercially available compounds; increase in enzyme activity vs non-treated cells; GBA fibroblasts bearing L444P; 6-50 μM; 4 days", "experimental": "(§1) Enhancement of β-Glucocerebrosidase Activity Measured in Gaucher Disease Fibroblasts Materials\n(§2) Human fibroblasts from a patient with Gaucher disease homozygous for p.L444P mutation (GM08760A) were purchased from Coriell Institute for Medical Research (Camden, N.J., USA).\n(§3) Fibroblasts were seeded at 5×10^3 cells per well in 96-well cell culture plates (Corning, N.Y., USA) in Dulbecco's Modified Eagle's Media (DMEM) supplemented with 10% of fetal bovine serum (FBS), 1% penicillin/streptomycin (P/S) (Thermo Fisher Scientific, Waltham, Mass., USA) and grown at 37° C., 5% CO2 overnight for cell attachment. Subsequently, cells were incubated in the absence or presence of the compounds at the desired concentration for 4 days. After incubation, cells were washed twice with phosphate-buffered saline (PBS) and enzyme activity assay was performed.\n(§4) β-glucocerebrosidase activity in intact cultured cells was measured by using 4-methylumbelliferyl-β-D-glucopyranoside substrate (Apollo Scientific, UK). Briefly, cells were incubated with 4-MU-β-D-glucopyranoside in 0.1 M acetate buffer pH=4 at 37° C. for 1 hour. […] The liberated 4-MU was measured on a GloMax Discover plate reader (Promega, Madison, Wis., USA) with and excitation at 340 nm and emission at 460 nm. Enzyme activities were expressed in treated cells as X-fold increase in comparison with non-treated cells (X=1 represents no enhancement).\n(§5) The capacity of the compounds of the disclosure to produce an increase in enzyme activity in GBA fibroblasts bearing L444P at concentrations between 6 and 50 μM is denoted as follows:\n(§6) The following compounds listed in Table 2 were purchased (from Enamine, Princeton, Asinex, Vistas-M, and OSSK_541352) and tested in the assay as described above.", "values": [
      {"compound": "COc1cccc(N2CCN(Cc3nc(N)nc(Nc4ccc(C)cc4)n3)CC2)c1", "note": "[6-((4-(3-methoxyphenyl)piperazin-1-yl)methyl)-N2-(p-tolyl)-1,3,5-triazine-2,4-diamine]", "Activity L444P": "C (Increase in comparison with non-treated of 1.2-1.7 fold is shown as C)"},
      {"compound": "Cc1ccc(Nc2nc(N)nc(CN3CCN(c4ccccc4)CC3)n2)cc1", "note": "[6-((4-phenylpiperazin-1-yl)methyl)-N2-(p-tolyl)-1,3,5-triazine-2,4-diamine]", "Activity L444P": "C (Increase in comparison with non-treated of 1.2-1.7 fold is shown as C)"},
      {"compound": "Cc1ccc(Nc2nc(N)nc(CN(C)CCOc3ccc(Cl)cc3)n2)cc1", "note": "[6-(((2-(4-chlorophenoxy)ethyl)(methyl)amino)methyl)-N2-(p-tolyl)-1,3,5-triazine-2,4-diamine]", "Activity L444P": "C (Increase in comparison with non-treated of 1.2-1.7 fold is shown as C)"},
      {"compound": "Cc1ccc(Nc2nc(N)nc(CN(C)Cc3ccco3)n2)cc1", "note": "[6-(((furan-2-ylmethyl)(methyl)amino)methyl)-N2-(p-tolyl)-1,3,5-triazine-2,4-diamine]", "Activity L444P": "C (Increase in comparison with non-treated of 1.2-1.7 fold is shown as C)"},
      {"compound": "Nc1nc(CN(Cc2ccc(F)cc2)C2CC2)nc(Nc2ccc(F)cc2)n1", "note": "[6-((cyclopropyl(4-fluorobenzyl)amino)methyl)-N2-(4-fluorophenyl)-1,3,5-triazine-2,4-diamine]", "Activity L444P": "C (Increase in comparison with non-treated of 1.2-1.7 fold is shown as C)"},
      {"compound": "Cc1ccc(CN(C)Cc2nc(N)nc(Nc3ccccc3C)n2)cc1", "note": "[6-((methyl(4-methylbenzyl)amino)methyl)-N2-(o-tolyl)-1,3,5-triazine-2,4-diamine]", "Activity L444P": "C (Increase in comparison with non-treated of 1.2-1.7 fold is shown as C)"},
      {"compound": "Cc1ccccc1Nc1nc(N)nc(CN(C)c2ccccc2)n1", "note": "[6-((methyl(phenyl)amino)methyl)-N2-(o-tolyl)-1,3,5-triazine-2,4-diamine]", "Activity L444P": "C (Increase in comparison with non-treated of 1.2-1.7 fold is shown as C)"}
    ]},
    {"target": "T1, β-glucocerebrosidase, p.L444P mutation (GM08760A fibroblasts)", "assay": "Enhancement of β-glucocerebrosidase activity measured in Gaucher disease fibroblasts (L444P)", "type": "cell-based", "settings": "increase in enzyme activity vs non-treated cells; GBA fibroblasts bearing L444P; concentrations between 6 and 50 μM; 4 days incubation", "experimental": "as §1, §2, §3, §4, §5, §6", "values": [
      {"compound": "COc1ccc(Nc2nc(N)nc(CN(C)c3ccccc3)n2)cc1", "note": "[Example 2, N^2-(4-Methoxyphenyl)-6-((methyl(phenyl)amino)methyl)-1,3,5-triazine-2,4-diamine]", "Activity L444P": "C (Increase in comparison with non-treated of 1.2-1.7 fold is shown as C)"},
      {"compound": "CN(Cc1ccccc1)Cc1nc(N)nc(Nc2ccc(C#N)cc2)n1", "note": "[Example 11, 4-(4-Amino-6-((benzyl(methyl)amino)methyl)-1,3,5-triazin-2-ylamino)benzonitrile]", "Activity L444P": "C (Increase in comparison with non-treated of 1.2-1.7 fold is shown as C)"},
      {"compound": "COc1ccccc1Nc1cc(CN(C)Cc2ccccc2)nc(N)n1", "note": "[Example 15, 6-((benzyl(methyl)amino)methyl)-N^4-(2-methoxyphenyl)pyrimidine-2,4-diamine]", "Activity L444P": "B (Increase in comparison with non-treated of >1.7-2.0 fold is shown as B)"},
      {"compound": "COc1cccc(Nc2cc(CN(C)Cc3ccccc3)nc(N)n2)c1", "note": "[Example 17]", "Activity L444P": "B (Increase in comparison with non-treated of >1.7-2.0 fold is shown as B)"},
      {"compound": "CN(Cc1ccccc1)Cc1cc(Nc2ccc(Cl)cc2)nc(N)n1", "note": "[Example 21, 6-((benzyl(methyl)amino)methyl)-N^4-(4-chlorophenyl)pyrimidine-2,4-diamine]", "Activity L444P": "B (Increase in comparison with non-treated of >1.7-2.0 fold is shown as B)"},
      {"compound": "Cc1ccc(Nc2cc(N)nc(CN(C)Cc3ccccc3)n2)cc1", "note": "[Example 22, 2-((Benzyl(methyl)amino)methyl)-N^4-(p-tolyl)pyrimidine-4,6-diamine]", "Activity L444P": "B (Increase in comparison with non-treated of >1.7-2.0 fold is shown as B)"},
      {"compound": "Cc1ccc(Nc2nc(N)cc(CN(C)Cc3ccccc3)n2)cc1", "note": "[Example 23, 6-((benzyl(methyl)amino)methyl)-N^2-p-tolylpyrimidine-2,4-diamine]", "Activity L444P": "B (Increase in comparison with non-treated of >1.7-2.0 fold is shown as B)"},
      {"compound": "Cc1ccc(Nc2nc(N)nc(CNC3CCc4ccccc4C3)n2)cc1", "note": "(centres unmarked) [Example 27, 6-(((1,2,3,4-Tetrahydronaphthalen-2-yl)amino)methyl)-N-(p-tolyl)-1,3,5-triazine-2,4-diamine]", "Activity L444P": "C (Increase in comparison with non-treated of 1.2-1.7 fold is shown as C)"},
      {"compound": "CN(Cc1ccccc1)Cc1cc(Nc2cccc(C#N)c2)nc(N)n1", "note": "[Example 29, 3-(2-Amino-6-((benzyl(methyl)amino)methyl)pyrimidin-4-ylamino)benzonitrile]", "Activity L444P": "B (Increase in comparison with non-treated of >1.7-2.0 fold is shown as B)"},
      {"compound": "Cc1ccc(Nc2cc(CN(C)Cc3cccc(C)c3)nc(N)n2)cc1", "note": "[Example 32, 6-((Methyl(3-methylbenzyl)amino)methyl)-N^4-p-tolylpyrimidine-2,4-diamine]", "Activity L444P": "C (Increase in comparison with non-treated of 1.2-1.7 fold is shown as C)"},
      {"compound": "Cc1ccc(CN(C)Cc2cc(Nc3ccc(C)cc3)nc(N)n2)cc1", "note": "[Example 34, 6-((Methyl(4-methylbenzyl)amino)methyl)-N^4-p-tolylpyrimidine-2,4-diamine]", "Activity L444P": "B (Increase in comparison with non-treated of >1.7-2.0 fold is shown as B)"},
      {"compound": "Cc1ccc(Nc2cc(CN3CCc4ccccc4C3)nc(N)n2)cc1", "note": "[Example 35, 6-((3,4-Dihydroisoquinolin-2(1H)-yl)methyl)-N^4-p-tolylpyrimidine-2,4-diamine]", "Activity L444P": "B (Increase in comparison with non-treated of >1.7-2.0 fold is shown as B)"},
      {"compound": "COc1cccc(Nc2cc(CN(C)Cc3cccc(C)c3)nc(N)n2)c1", "note": "[Example 38]", "Activity L444P": "B (Increase in comparison with non-treated of >1.7-2.0 fold is shown as B)"},
      {"compound": "Cc1cccc(Nc2cc(CN(C)Cc3cccc(C#N)c3)nc(N)n2)c1", "note": "[Example 39, 3-((((2-Amino-6-(m-tolylamino)pyrimidin-4-yl)methyl)(methyl)amino)methyl) benzonitrile]", "Activity L444P": "C (Increase in comparison with non-treated of 1.2-1.7 fold is shown as C)"},
      {"compound": "CCc1ccc(CN(C)Cc2cc(Nc3cccc(OC)c3)nc(N)n2)cc1", "note": "[Example 40, 6-(((4-Ethylbenzyl)(methyl)amino)methyl)-N^4-(3-methoxyphenyl)pyrimidine-2,4-diamine]", "Activity L444P": "B (Increase in comparison with non-treated of >1.7-2.0 fold is shown as B)"},
      {"compound": "COCCN(Cc1ccccc1)Cc1cc(Nc2cccc(OC)c2)nc(N)n1", "note": "[Example 49, 6-((Benzyl(2-methoxyethyl)amino)methyl)-N^4-(3-methoxyphenyl)pyrimidine-2,4-diamine]", "Activity L444P": "C (Increase in comparison with non-treated of 1.2-1.7 fold is shown as C)"},
      {"compound": "COc1cccc(Nc2cc(CN(C)c3cccc(OC)c3)nc(N)n2)c1", "note": "[Example 51]", "Activity L444P": "C (Increase in comparison with non-treated of 1.2-1.7 fold is shown as C)"},
      {"compound": "COc1cccc(CN(C)Cc2cc(Nc3ccc(C)cc3)nc(N)n2)c1", "note": "[Example 53, 6-(((3-Methoxybenzyl)(methyl)amino)methyl)-N^4-p-tolylpyrimidine-2,4-diamine]", "Activity L444P": "C (Increase in comparison with non-treated of 1.2-1.7 fold is shown as C)"},
      {"compound": "Cc1ccc(Nc2cc(CN(C)Cc3cccc(C#N)c3)nc(N)n2)cc1", "note": "[Example 55, 3-((((2-Amino-6-(p-tolylamino)pyrimidin-4-yl)methyl)(methyl)amino)methyl)benzonitrile]", "Activity L444P": "B (Increase in comparison with non-treated of >1.7-2.0 fold is shown as B)"},
      {"compound": "Cc1ccc(Nc2cc(CN(C)Cc3ccc(C#N)cc3)nc(N)n2)cc1", "note": "[Example 57, 4-((((2-Amino-6-(p-tolylamino)pyrimidin-4-yl)methyl)(methyl)amino)methyl)benzonitrile]", "Activity L444P": "C (Increase in comparison with non-treated of 1.2-1.7 fold is shown as C)"},
      {"compound": "Cc1ccc(Nc2cc(CN(C)Cc3ccncc3)nc(N)n2)cc1", "note": "[Example 60, 6-((Methyl(pyridin-4-ylmethyl)amino)methyl)-N^4-p-tolylpyrimidine-2,4-diamine]", "Activity L444P": "C (Increase in comparison with non-treated of 1.2-1.7 fold is shown as C)"},
      {"compound": "Cc1ccc(Nc2cc(CN(C)Cc3cccnc3)nc(N)n2)cc1", "note": "[Example 61, 6-((Methyl(pyridin-3-ylmethyl)amino)methyl)-N^4-p-tolylpyrimidine-2,4-diamine]", "Activity L444P": "C (Increase in comparison with non-treated of 1.2-1.7 fold is shown as C)"}
    ]}
  ]
}
